{"source": "patent US20220041559A1", "about": "“BENZO-AND PYRIDO-PYRAZOLES AS PROTEIN KINASE INHIBITORS” (ROTTAPHARM BIOTECH S.R.L., priority 2019, published 2022)", "key": {"U87MG-luc tumor cells": {"test_system": "U87MG-luc tumor cells", "assay": "Reduction of tumor growth in intracranial U87MG-luc glioblastoma bearing mice", "format": "in vivo, athymic Nude mice", "settings": "50 mg/kg orally once a day, days 9-19", "experimental": "Human U87MG cells (Glioblastoma Cancer cell line) were engineered to express the luciferase gene (U87MG-luc). Cultured U87MG-luc tumor cells were intracranially injected in athymic Nude mice. Eight days from injection mice were randomised on the basis of luminescence values emitted by luciferase-expressing U87M-luc tumor cells and divided into 2 treatment groups. The treatment started on day 9 and lasted 10 days. Mice were orally dosed with vehicle or with compound 5 of invention (50 mg/kg, once a day). The tumor growth was evaluated by real-time Bioluminescence Imaging at the end of the treatments period (day 19) and on day 26 and 33, form the cell injection. The tumour growth was reduced in mice treated with compound 5 compared to mice treated with vehicle alone."}, "EGFR": {"molecular_target": "EGFR (Homo sapiens, UniProt P00533)", "sequence (P00533 25-1210)": "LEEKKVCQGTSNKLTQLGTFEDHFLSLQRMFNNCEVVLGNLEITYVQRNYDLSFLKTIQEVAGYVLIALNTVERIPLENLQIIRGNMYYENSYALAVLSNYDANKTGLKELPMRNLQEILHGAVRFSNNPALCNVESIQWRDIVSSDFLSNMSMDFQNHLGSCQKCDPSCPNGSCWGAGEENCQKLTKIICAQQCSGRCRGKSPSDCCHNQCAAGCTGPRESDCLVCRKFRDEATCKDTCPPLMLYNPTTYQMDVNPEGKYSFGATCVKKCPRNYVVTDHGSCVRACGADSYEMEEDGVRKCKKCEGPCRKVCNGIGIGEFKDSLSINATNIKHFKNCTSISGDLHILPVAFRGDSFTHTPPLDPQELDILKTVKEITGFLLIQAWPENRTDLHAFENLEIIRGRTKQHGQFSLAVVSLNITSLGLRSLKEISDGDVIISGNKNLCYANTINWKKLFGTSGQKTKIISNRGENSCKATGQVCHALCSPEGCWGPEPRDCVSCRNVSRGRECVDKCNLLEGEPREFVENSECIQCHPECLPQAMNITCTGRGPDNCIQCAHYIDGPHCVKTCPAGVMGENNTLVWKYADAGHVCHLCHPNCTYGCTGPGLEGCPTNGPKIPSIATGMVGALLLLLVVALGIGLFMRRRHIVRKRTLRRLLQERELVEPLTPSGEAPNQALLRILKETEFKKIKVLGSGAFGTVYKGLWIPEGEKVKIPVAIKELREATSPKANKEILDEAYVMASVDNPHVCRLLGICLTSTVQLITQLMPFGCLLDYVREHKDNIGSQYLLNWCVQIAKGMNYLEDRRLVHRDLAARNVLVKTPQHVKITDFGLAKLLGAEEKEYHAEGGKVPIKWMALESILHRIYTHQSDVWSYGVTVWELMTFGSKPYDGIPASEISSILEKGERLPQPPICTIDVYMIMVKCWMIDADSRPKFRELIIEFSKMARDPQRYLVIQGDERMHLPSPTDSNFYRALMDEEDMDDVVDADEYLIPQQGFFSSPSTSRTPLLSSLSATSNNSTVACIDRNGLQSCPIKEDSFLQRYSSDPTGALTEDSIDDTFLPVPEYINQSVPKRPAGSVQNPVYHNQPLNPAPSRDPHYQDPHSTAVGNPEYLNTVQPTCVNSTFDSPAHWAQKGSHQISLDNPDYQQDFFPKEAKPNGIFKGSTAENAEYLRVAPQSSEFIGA", "assay": "Inhibition of EGF-induced EGFR (Y1068)-phosphorylation (cell-based assay, U87MG)", "set-up": "endogenous in cells; host or cells: U87MG", "settings": "EGF 10 ng/ml, Western blot", "experimental": "U87MG cells (Uppsala 87 Malignant Glioma, a human glioblastoma cell line from ATCC) were plated at 3×10^5 cells/well in 12 w microplates and grown adherent in medium DMEM+10% FBS at 37° C. with 5% CO2. After 24 h, medium was removed and starvation was induced overnight in medium DMEM+0.1% FBS (medium starvation). At the end of incubation, treatment of cells was performed by medium replacement and by adding fresh medium containing or not diluent or test compounds (DMSO 0.1% final concentration) diluted in medium starvation. After 1 hour, EGF stimuli (diluted in medium starvation, 10 ng/ml final concentration) was added to each sample, with the exception of basal sample; plate was then incubated for 15 min at 37° C. with 5% CO2. At the end of the incubation, the medium was removed and cellular lysates were obtained by adding M-PER lysis buffer containing 1× Protease/Phosphatase inhibitors cocktail. Then, lysates were transferred into Eppendorf tubes, sonicated and stored at −80° C.\nProtein content was measured by Bradford method. Lysates were analyzed by Western blot for EGFR phosphorylation (Tyrosine 1068) and total receptor amount determination. Densitometric analysis of sample lanes were performed by ImageQuant TL software (GE Healthcare Life Sciences). […]"}, "U87MG": {"test_system": "U87MG", "assay": "Cell viability, ViaCount assay, U87MG", "format": "cell-based, human", "settings": "tested cell lines (U87MG, U373)", "experimental": "U87MG: a human glioblastoma astrocytoma from ATCC. Grown in DMEM medium supplemented with 10% FBS at 37° C. with CO2.\nCell viability and total cell count was performed with ViaCount Assay on Guava® Systems, which was able to distinguish viable and non-viable cells based on differential permeabilities of two DNA-binding dyes in the Guava ViaCount® Reagent. 2×10^4 cancer cells were plated in 24 well in DMEM 10%. After 72 h cells were treated with the different compounds for 24, 72 h or 7 days, with a medium change and a second treatment with the product on day 4. At the end of the incubation period the analysis was done following the kit instructions."}, "human FynB": {"molecular_target": "human FynB (Homo sapiens, UniProt P06241)", "sequence (P06241 271-524 limits assumed)": "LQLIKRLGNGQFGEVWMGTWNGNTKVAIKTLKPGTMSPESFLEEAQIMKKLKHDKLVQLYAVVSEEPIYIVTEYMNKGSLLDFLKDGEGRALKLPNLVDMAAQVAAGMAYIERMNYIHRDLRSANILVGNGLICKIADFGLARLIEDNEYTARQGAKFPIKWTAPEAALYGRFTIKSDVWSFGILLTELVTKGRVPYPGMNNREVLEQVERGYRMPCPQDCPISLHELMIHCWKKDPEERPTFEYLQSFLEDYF", "assay": "Inhibition of FynB-induced Tau(Y18)-phosphorylation (cell-based assay, HEK293)", "experimental": "HEK293 cells (Human Embryonic Kidney 293) were seeded at 6×10^5 in poly-D-lysine 12 w microplates and grown adherent in medium DMEM/10% FBS at 37° C. with 5% CO2. After 24 h, cells were transfected in order to over-express either constitutively active form of human FynB and Tau protein (isoform 0N4R), through an optimized Lipofectamine® 3000 Transfection protocol (Life Technologies™). A non-transfected sample (negative control) was included in every experiment.\nTwenty-four hours from transfection, treatments of cells were performed by adding fresh medium containing diluent (DMSO 0.1% final concentration) or test compounds. The incubation was carried out for 6 or 24 hours at 37° C. with 5% CO2. All experimental conditions were performed in duplicate.\nAt the end of the incubation, the medium was removed and cellular lysates were obtained by adding M-PER lysis buffer containing a 1× Protease/Phosphatase inhibitors cocktail. Then, lysates were transferred into Eppendorf tubes, sonicated and stored at −80° C.\nProtein content was measured by Bradford method. Lysates were analyzed by a customized ELISA assay for Tau phosphorylation (Tyrosine 18 residue-Fyn mediated) and Total amount determination. The net OD values were used to calculate the inhibitory effect of compounds."}, "[1]": {"assay": "Pharmacokinetics in CD1 mice, iv and po", "format": "in vivo", "settings": "3 mg/kg; for Kp: brain and plasma, read-out: B/P (brain to plasma ratio); for half-life: read-out: t½* (converted)"}}, "note": "Where two headings read alike, the source gives them in different places.", "data": [{"smiles": "CN1CCC(c2ccc(C(=O)Nc3n[nH]c4nc(Nc5ccccc5F)ccc34)cc2)CC1", "note": "[Compound 5, N-(6-((2-fluorophenyl)amino)-1H-pyrazolo[3,4-b]pyridin-3-yl)-4-(1-methylpiperidin-4-yl)benzamide]", "values": [{"measurement": "inhibition of tumour growth (percentage of radiance inhibition)", "setting": "U87MG-luc tumor cells; day 19", "result": 24.9, "unit": "%"}, {"measurement": "inhibition of tumour growth (percentage of radiance inhibition)", "setting": "U87MG-luc tumor cells; day 26", "result": 34.4, "unit": "%"}, {"measurement": "inhibition of tumour growth (percentage of radiance inhibition)", "setting": "U87MG-luc tumor cells; day 33", "result": 60.4, "unit": "%"}, {"measurement": "IC50", "setting": "EGFR", "result": 3000, "unit": "nM"}, {"measurement": "reduction of cell viability, result in words", "setting": "U87MG", "result": "active in reducing cell viability"}, {"measurement": "IC50", "setting": "human FynB; HEK293 over-expressing FynB and Tau 0N4R, incubation 6 or 24 hours, ELISA", "result": 300, "unit": "nM"}, {"measurement": "Inhibition of FynB-induced Tau(Y18)-phosphorylation, result in words", "setting": "human FynB; summary of Table 20", "result": "best inhibitors"}, {"measurement": "Tlast", "setting": "[1]; iv", "result": 24, "unit": "h"}, {"measurement": "Kp", "setting": "[1]; mouse, calculated on AUC iv", "result": 1.2}, {"measurement": "Kp", "setting": "[1]; mouse, calculated on AUC po", "result": 1.4}, {"measurement": "AUC(0-inf)", "setting": "[1]; mouse, plasma, iv", "result": 1640, "unit": "ng·h/mL"}, {"measurement": "AUC(0-t)", "setting": "[1]; mouse, plasma, iv", "result": 1620, "unit": "ng·h/mL"}, {"measurement": "clearance", "setting": "[1]; mouse, plasma, iv, read-out: CLp", "result": 30.4, "unit": "mL/min/kg"}, {"measurement": "Vd", "setting": "[1]; mouse, plasma, iv, read-out: Vz", "result": 10.2, "unit": "L/kg"}, {"measurement": "half-life", "setting": "[1]; mouse, plasma, iv", "result": 3.9, "unit": "h"}, {"measurement": "AUC(0-inf)", "setting": "[1]; mouse, plasma, po", "result": 1180, "unit": "ng·h/mL"}, {"measurement": "AUC(0-t)", "setting": "[1]; mouse, plasma, po", "result": 1170, "unit": "ng·h/mL"}, {"measurement": "Cmax", "setting": "[1]; mouse, plasma, po", "result": 331, "unit": "nM"}, {"measurement": "Tmax", "setting": "[1]; mouse, plasma, po", "result": 2, "unit": "h"}, {"measurement": "bioavailability", "setting": "[1]; mouse, plasma, po", "result": 72, "unit": "%"}, {"measurement": "half-life", "setting": "[1]; mouse, plasma, po", "result": 4, "unit": "h"}, {"measurement": "Tlast", "setting": "[1]; po", "result": 24, "unit": "h"}]}]}
